Laboratory results reported in PubChem BioAssay AID1963864 (Molecular Pharmacology Branch, DTP, NCI, 2024).

Tested on: KRAS PDC multicell spheroid viability
Assay: Anticancer human tumor 521955-158-R6-J3-PDC patient-derived pancreatic carcinoma cell line growth inhibition [KRAS2]
Conditions: for IC50: curve of first compound; for viability, T/C: stronger effect = lower value
In short: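 KRAS-mutant tumor cells were grown as spheroids with HUVEC endothelial cells and human MSCs as stroma. Targeted agents were tested alone and with KRAS pathway inhibitors. Doses started at or near clinical Cmax, or 10 microM, descending half-log.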

[1] = second compound 0.1 µM, first compound 0.000316 µM
[2] = second compound 0.1 µM, first compound 0.001 µM
[3] = second compound 0.1 µM, first compound 0.00316 µM
[4] = second compound 0.1 µM, first compound 0.01 µM
[5] = second compound 0.1 µM, first compound 0.0316 µM
[6] = second compound 0.1 µM, first compound 0.1 µM
[7] = second compound 0.316 µM, first compound 0.000316 µM
[8] = second compound 0.316 µM, first compound 0.001 µM
[9] = second compound 0.316 µM, first compound 0.00316 µM
[10] = second compound 0.316 µM, first compound 0.01 µM
[11] = second compound 0.316 µM, first compound 0.0316 µM
[12] = second compound 0.316 µM, first compound 0.1 µM
[13] = second compound 1 µM, first compound 0.000316 µM
[14] = second compound 1 µM, first compound 0.001 µM
[15] = second compound 1 µM, first compound 0.00316 µM
[16] = second compound 1 µM, first compound 0.01 µM
[17] = second compound 1 µM, first compound 0.0316 µM
[18] = second compound 1 µM, first compound 0.1 µM
[19] = second compound 3.16 µM, first compound 0.000316 µM
[20] = second compound 3.16 µM, first compound 0.001 µM
[21] = second compound 3.16 µM, first compound 0.00316 µM
[22] = second compound 3.16 µM, first compound 0.01 µM
[23] = second compound 3.16 µM, first compound 0.0316 µM
[24] = second compound 3.16 µM, first compound 0.1 µM
[25] = second compound 10 µM, first compound 0.000316 µM
[26] = second compound 10 µM, first compound 0.001 µM
[27] = second compound 10 µM, first compound 0.00316 µM
[28] = second compound 10 µM, first compound 0.01 µM
[29] = second compound 10 µM, first compound 0.0316 µM
[30] = second compound 10 µM, first compound 0.1 µM
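Note: drug exposure lasted seven days.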
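Throughout, for viability, T/C: 100% = DMSO vehicle wells and lower means fewer viable cells.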

`CN(C)C/C=C/C(=O)Nc1cc2c(Nc3ccc(F)c(Cl)c3)ncnc2cc1O[C@H]1CCOC1` + C=CC(=O)N1CCN(c2nc(=O)n(-c3c(C)ccnc3C(C)C)c3nc(-c4c(O)cccc4F)c(F)cc23)C(C)C1 gave an IC50 (second compound 0.1 µM) greater than 100 nM, an IC50 (second compound 0.316 µM) greater than 100 nM and an IC50 (second compound 1 µM) greater than 100 nM. For the same molecule, the IC50 (second compound 3.16 µM) was greater than 100 nM, the IC50 (second compound 10 µM) was greater than 100 nM and the viability, T/C [1] was 101%. For the same molecule, the viability, T/C [2] was 92.9%, the viability, T/C [3] was 85.4% and the viability, T/C [4] was 72.8%. The viability, T/C [5] was 68.6%, the viability, T/C [6] was 66.6% and the viability, T/C [7] was 119%. For the same molecule, the viability, T/C [8] was 112%, the viability, T/C [9] was 79.9% and the viability, T/C [10] was 81.7%. The viability, T/C [11] was 71.2%, the viability, T/C [12] was 66.3% and the viability, T/C [13] was 113%. The viability, T/C [14] was 92.2%, the viability, T/C [15] was 102% and the viability, T/C [16] was 79.8%. For the same molecule, the viability, T/C [17] was 67.6%, the viability, T/C [18] was 69.4% and the viability, T/C [19] was 112%. It also gave a viability, T/C [20] of 97%, a viability, T/C [21] of 83.7% and a viability, T/C [22] of 79%. The viability, T/C [23] was 69.6%, the viability, T/C [24] was 69.7% and the viability, T/C [25] was 73.2%. It also gave a viability, T/C [26] of 109%, a viability, T/C [27] of 66.7% and a viability, T/C [28] of 62.3%. For the same molecule, the viability, T/C [29] was 58.5% and the viability, T/C [30] was 65.3%.

In the case of `CC1(C)CCC(CN2CCN(c3ccc(C(=O)NS(=O)(=O)c4ccc(NCC5CCOCC5)c([N+](=O)[O-])c4)c(Oc4cnc5[nH]ccc5c4)c3)CC2)=C(c2ccc(Cl)cc2)C1` + COc1cc2nc(C)nc(NC(C)c3cc(N)cc(C(F)(F)F)c3)c2cc1OC1CCOC1, the IC50 (second compound 0.1 µM) is reported as 8210 nM, the IC50 (second compound 0.316 µM) is reported as 8720 nM and the IC50 (second compound 1 µM) is reported as 6080 nM. The IC50 (second compound 3.16 µM) was 2810 nM, the IC50 (second compound 10 µM) was less than 31.6 nM and the viability, T/C [5] was 103%. It also gave a viability, T/C [6] of 100%, a viability, T/C (second compound 0.1 µM, first compound 0.316 µM) of 91.6% and a viability, T/C (second compound 0.1 µM, first compound 1 µM) of 107%. For the same molecule, the viability, T/C (second compound 0.1 µM, first compound 3.16 µM) was 77.8%, the viability, T/C (second compound 0.1 µM, first compound 10 µM) was 44.3% and the viability, T/C [11] was 90.8%. For the same molecule, the viability, T/C [12] was 102%, the viability, T/C (second compound 0.316 µM, first compound 0.316 µM) was 95.7% and the viability, T/C (second compound 0.316 µM, first compound 1 µM) was 81.7%. It also gave a viability, T/C (second compound 0.316 µM, first compound 3.16 µM) of 70.5%, a viability, T/C (second compound 0.316 µM, first compound 10 µM) of 47.1% and a viability, T/C [17] of 90.1%. The viability, T/C [18] was 99.3%, the viability, T/C (second compound 1 µM, first compound 0.316 µM) was 88.1% and the viability, T/C (second compound 1 µM, first compound 1 µM) was 89.5%. It also gave a viability, T/C (second compound 1 µM, first compound 3.16 µM) of 63.1%, a viability, T/C (second compound 1 µM, first compound 10 µM) of 40% and a viability, T/C [23] of 68.9%. The viability, T/C [24] was 67.5%, the viability, T/C (second compound 3.16 µM, first compound 0.316 µM) was 69.3% and the viability, T/C (second compound 3.16 µM, first compound 1 µM) was 74%. For the same molecule, the viability, T/C (second compound 3.16 µM, first compound 3.16 µM) was 47.7%, the viability, T/C (second compound 3.16 µM, first compound 10 µM) was 30.3% and the viability, T/C [29] was 19.5%. The viability, T/C [30] was 23.6%, the viability, T/C (second compound 10 µM, first compound 0.316 µM) was 17.3% and the viability, T/C (second compound 10 µM, first compound 1 µM) was 31.4%. For the same molecule, the viability, T/C (second compound 10 µM, first compound 3.16 µM) was 18.6% and the viability, T/C (second compound 10 µM, first compound 10 µM) was 4.55%.

`CN(C)C/C=C/C(=O)Nc1cc2c(Nc3ccc(F)c(Cl)c3)ncnc2cc1O[C@H]1CCOC1` + CC1OCC2(CCN(c3cnc(Sc4ccnc(N)c4Cl)c(N)n3)CC2)C1N was tested, and the IC50 (second compound 0.1 µM) was greater than 100 nM, the IC50 (second compound 0.316 µM) was 51.1 nM and the IC50 (second compound 1 µM) was 86.2 nM. The IC50 (second compound 3.16 µM) was 24.4 nM, the IC50 (second compound 10 µM) was greater than 100 nM and the viability, T/C [1] was 99.4%. It also gave a viability, T/C [2] of 84.2%, a viability, T/C [3] of 76.7% and a viability, T/C [4] of 55.3%. For the same molecule, the viability, T/C [5] was 62.1%, the viability, T/C [6] was 54.8% and the viability, T/C [7] was 99%. For the same molecule, the viability, T/C [8] was 84.7%, the viability, T/C [9] was 69.8% and the viability, T/C [10] was 52.9%. For the same molecule, the viability, T/C [11] was 53%, the viability, T/C [12] was 48.3% and the viability, T/C [13] was 105%. It also gave a viability, T/C [14] of 86.4%, a viability, T/C [15] of 87.4% and a viability, T/C [16] of 64.9%. The viability, T/C [17] was 69.8%, the viability, T/C [18] was 44.7% and the viability, T/C [19] was 124%. For the same molecule, the viability, T/C [20] was 117%, the viability, T/C [21] was 89.7% and the viability, T/C [22] was 124%. For the same molecule, the viability, T/C [23] was 28.3%, the viability, T/C [24] was 34.8% and the viability, T/C [25] was 110%. It also gave a viability, T/C [26] of 101%, a viability, T/C [27] of 71.8% and a viability, T/C [28] of 60.9%. The viability, T/C [29] was 50.1% and the viability, T/C [30] was 49.2%.
